Source: patent US9346820B2, “HIV-1 protease inhibitors having gem-di-fluoro bicyclic P2-ligands” (priority 2013, dated 2016)

Legend:
HIV-1DRV^RP20 = experiment: Antiviral activity against DRV-resistant variant, passage 20; assay type: cell-based; settings: Human immunodeficiency virus 1, read-out: EC50 against HIV-1DRV^RP20
MT-2 cells = experiment: Cytotoxicity (CC50), MTT assay; assay type: cell-based; settings: human, 7 days
Experimental: The susceptibility of HIV-1LAI to various drugs was determined as previously described with minor modifications. Briefly, MT-2 cells (10^4/ml) were exposed to 100 50% tissue culture infectious doses (TCID50) of HIV-1LAI in the presence or absence of various concentrations of drugs in 96-well microculture plates and were incubated at 37° C. for 7 days. After 100 μl of the medium was removed from each well, 3-(4,5-dimetylthiazol-2-yl)-2,5-diphenyltetrazolium bromide (MTT) solution (10 μl, 7.5 mg/ml in phosphate-buffered saline) was added to each well in the plate, followed by incubation at 37° C. for 2 h. […] All assays were performed in duplicate or triplicate. […] In determining the drug susceptibility of certain laboratory HIV-1 strains, MT-4 cells were employed as target cells as previously described with minor modifications. In brief, MT-4 cells (10^5/ml) were exposed to 100 TCID50 of drug-resistant HIV-1 strains in the presence or absence of various concentrations of drugs and were incubated at 37° C. On day 7 of culture, the supernatants were harvested and the amounts of p24 Gag protein were determined by using a fully automated chemiluminescent enzyme immunoassay system (Lumipulse F: Fujirebio Inc., Tokyo). […] All assays were performed in duplicate or triplicate. PHA-PBMs were derived from a single donor in each independent experiment. Thus, for obtaining the data, three different donors were recruited.

| SMILES | EC50 (HIV-1DRV^RP20) [µM] | CC50 (MT-2 cells) [µM] |
| --- | --- | --- |
| CC(C)CN(C[C@@H](O)[C@H](Cc1ccccc1)NC(=O)O[C@H]1CO[C@H]2OCC[C@H]21)S(=O)(=O)c1ccc(N)cc1 [DRV, darunavir] | 0.174 | – |
| CC(C)CN(C[C@@H](O)[C@H](Cc1ccccc1)NC(=O)O[C@H]1CO[C@H]2OCC(F)(F)[C@H]21)S(=O)(=O)c1ccc(N)cc1 [GRL-05010] | – | 37 |
